Reference: patent US20110294992A1, “METAL RESPONSIVE MRI-AGENTS” (The Regents of the University of California, priority 2010, published 2011)
Values joined by “and” are separate entries in the source; they are usually repeats but may differ in a detail not shown here. Equal entries are not always repeated. Marks after values point to notes of the source that are not given here. Blank lines part the entries; values can stand above or below the compound they belong to.

What was measured:
Format in all cases: physicochemical
[1] = Dysprosium-induced 17O NMR shift (DIS) experiments for q; details: for q (estimated number of inner-sphere water molecules): calculated from q = 9 DyCl3
Description: FIG. 8. Plot of [DyCG2] vs. −Δ ppm of the ^17O signal of H2O in the absence and presence of 1 equiv Cu^+. Spectra were acquired at room temperature in 20 mM HEPES buffer, pH 7, at a ^17O Larmor frequency of 67.8 MHz.
To circumvent these issues, we turned our attention to an alternative method for obtaining q values, namely the application of ^17O NMR spectroscopy to Dy^3+ analogs of the CG sensors (DyCG2-6).^114 Specifically, interactions of water ligands with paramagnetic Dy^3+ ions lead to an upfield shift of the ^17O signals of H2O in a manner proportional to both the concentration of Dy^3+ and q. Moreover, this lanthanide-induced shift is largely insensitive to the non-water ligands coordinated to the paramagnetic metal center.^114 Dysprosium-induced shift (DIS) experiments for CG2 and CG3 were performed in 20 mM HEPES buffered to pH 7; CG4 and CG5 spectra were acquired in 10% acetonitrile in 20 mM HEPES buffered to pH 7 owing to solubility and stability of the Cu^+-bound complexes at higher Dy^3+ concentrations required for the DIS measurements (1-200 mmol/kg H2O). Dy concentrations were calculated using molality (with respect to H2O) since the ^17O shift represents the interaction between Dy^3+ and H2O; addition of CH3CN aids in stabilizing certain complexes but should not affect the DIS. The spectral results were calibrated to a DyCl3 standard (q=9) to determine the number of bound water molecules for the CG sensors with and without added Cu^+. A plot of varying DyCl3 concentrations versus DIS in pH 7 HEPES buffer has a slope of 324 ppm/(mol/kg H2O), which corresponds to a 36 ppm/(mol/kg H2O) shift per bound water molecule.
The effects of DyCG2 on the chemical shift of ^17O-labeled H2O were determined in the absence and presence of 1 equiv Cu^+ at various concentrations of Dy^3+ (FIG. 8). In the absence of Cu^+, the measured ^17O shift response for DyCG2 is 9 ppm/(mol/kg H2O), corresponding to q=0.3. When 1 equiv of Cu^+ is added, the observed shift response increases to 72 ppm/(mol/kg H2O), corresponding to q=2.0. […] DIS measurements of DyCG4 and DyCG5 without Cu^+ show slopes of 7 ppm/(mol/kg H2O) (q=0.2) and 12 ppm/(mol/kg H2O) (q=0.3), respectively. Cu^+ binding increases the DIS slopes for DyCG4 and DyCG5 to […] ([…]) and 41 ppm/(mol/kg H2O) (q=1.0), respectively.

[2] = Metal ion selectivity of relaxivity response (competing metal ions alone or with added copper); details: relaxivity at 60 MHz, 20 mM HEPES, pH 7, 37° C.
Description: FIG. 6. Relaxivity responses of CG2 to various metal ions. White bars represent the addition of an excess of the appropriate metal ion (10 mM for Na^+, 2 mM for K^+, Mg^2+, and Ca^2+, and 0.2 mM for Fe^2+, Fe^3+, Cu^2+) to a 0.2 mM solution of CG2. Response to Zn^2+ was measured both at 0.2 mM Zn^2+ (Zn^2+1×) and 2 mM Zn^2+ (Zn^2+10×). Black bars represent the subsequent addition of 0.2 mM Cu^+ to the CG2 solution. Relaxivity measurements were acquired at 37° C. in 20 mM HEPES buffer, pH 7, at a proton Larmor frequency of 60 MHz.
The potential ability of this new family of CG sensors to sense bioavailable copper pools in either or both its predominant oxidation states represents a significant advance over the initial CG1 compound.

[3] = Longitudinal relaxivity (r1) from T1 measurements at 60 MHz, absence of copper; details: no copper; 60 MHz, 20 mM HEPES buffer, pH 7, 37° C., 0.2 mM Gd^3+
Description: (§1) The longitudinal relaxivity values for the CG contrast agents in the absence or presence of copper ions were determined using T1 measurements at 60 MHz. Studies were performed at 37° C. in 20 mM HEPES buffered to pH 7, and solutions of the purified CG sensors for relaxivity experiments contained 0.2 mM Gd^3+ as determined by ICP-OES. Spectroscopic data are collected in Table 1.
Nuclear magnetic relaxation dispersion (NMRD) experiments provide supporting evidence for this proposal (vide infra).

[4] = Longitudinal relaxivity (r1) turn-on response to Cu+ from T1 measurements at 60 MHz; details: pH 7, 37° C.
Description: as §1
Upon addition of up to 1 equiv of copper ions, the relaxivity values of the CG contrast agents increase, establishing the ability of these probes to sense copper using the MR modality (Table 1, FIG. 3). CG2, CG3, CG4, and CG5 respond to Cu^+ with relaxivity increases ranging from 92% to 360%. […] These values represent the largest relaxivity enhancements observed to date for metal-activated MR contrast agents and a ca. 9-fold improvement in copper ion response compared to CG1 (41% increase). The observed differences in turn-on Cu^+ responses for benzyl-substituted CG4 (290% increase) versus methyl-substituted CG5 (92% increase) with the same pyridyl-thioether receptor show the marked effects that small peripheral substitutions can have on relaxivity properties.

[5] = Nuclear magnetic relaxation dispersion (NMRD) profiles, Solomon-Bloembergen-Morgan fit
Description: FIG. 9. ^1H Nuclear magnetic relaxation dispersion profiles of CG3 and CG3+Cu^+ acquired at 25° C. The solid lines represent the best fit profiles.
As a secondary, independent set of experiments to further probe the mechanisms of copper ion sensing by the CG contrast agents, we also performed nuclear magnetic relaxation dispersion (NMRD) measurements of these sensors in the absence and in the presence of copper ions using a field cycling relaxometer (FIG. 9). The profiles obtained were analyzed following Solomon-Bloembergen-Morgan theory^36-38 for the inner-sphere relaxivity and the Freed model^115 for the outer-sphere relaxivity, fixing the diffusion coefficient (D) at […], the distance between Gd^3+ and the inner sphere water protons (r) at 3.1 Å, and the inner sphere exchange lifetime (τM) at 160 ns, the reported value for the parent complex Gd^3+-DO3A. Profiles were obtained for all compounds in the copper-free state. Profiles in the presence of Cu^n+ were obtained for CG2-4 (Cu^+) and CG6 (Cu^2+).
In fact, the measured outer-sphere relaxivities were so low that, in order to obtain a reasonable fit, the distance of closest approach of outer-sphere water protons (a) was allowed to vary. The distances obtained for the CG complexes (4.2-4.8 Å) were markedly longer than what is observed for typical Gd^3+ contrast agents with greater water access (3.8-4 Å). These values correlate with the copper-free relaxivities of CG2-6; longer a values give lower relaxivities and shorter a values give higher relaxivities. For Cu^+-sensing agents CG2-4, the estimated change in q of 2 as determined by DIS measurements was also observed in the fitted NMRD data. In fact, any attempt to fit the observed NMRD profiles with q=1 led to very poor agreement between experimental and calculated values. The change in q of 1 for CG6 upon addition of Cu^2+ as determined by NMRD is consistent with the lower turn-on response observed with this complex compared to CG2-4. The reduced q modulation for CG6 relative to CG2-4 could indicate that the carboxylic acid moiety used for Cu^2+ binding also interacts with the Gd^3+ center in the Cu^2+-bound state. The fitted rotational correlation times (τR) for copper-bound CG complexes all fall within the range expected for Gd^3+ complexes with molecular weights of 700-800 D. τR values for copper-free CG2-6 were fixed to values close to their copper-bound analogues as fits of NMRD data for q=0 complexes are not sensitive to small changes in τR. The values of Δ^2 (average quadratic transient zero field splitting), τv (electronic correlation time), and τs0 (electronic relaxation time at zero field), which govern the electronic relaxation time, are relatively similar to each other. These NMRD values are closer to those of Gd^3+-DTPA than Gd^3+-DOTA, reflecting the asymmetry of CG2-6.^64

[6] = Longitudinal relaxivity (r1) turn-on response to Cu2+ from T1 measurements at 60 MHz; details: pH 7, 37° C.
Description: as §1
CG6 is a unique member of the CG family that is equally responsive to both Cu^+ and Cu^2+. Addition of either Cu^+ or Cu^2+ to CG6 triggers a maximum 73% relaxivity turn-on from r1=2.2 mM^−1s^−1 to r1=3.8 mM^−1s^−1. […] On the other hand, copper-bound CG6, which responds to both Cu^+ and Cu^2+, has the least positive Cu^2+/Cu^+ reduction potential at +0.13 V.

[7] = 20 mM HEPES, pH 7, 1 equiv Cu^+
[8] = 10% CH3CN in 20 mM HEPES pH 7, 1 equiv Cu^+

- −Δ ppm/[Dy] (DIS slope) [1, 7]: 72 ppm/(mol/kg H2O)
- q (estimated number of inner-sphere water molecules) [1, 7]: 2.0
- −Δ ppm/[Dy] (DIS slope) ([1]; 20 mM HEPES, pH 7, no Cu^+): 9 ppm/(mol/kg H2O)
Compound: CCSCCN(CCSCC)Cc1cccc(CN2CCN(CC(=O)[O-])CCN(CC(=O)[O-])CCN(CC(=O)[O-])CC2)n1.[Dy+3] [DyCG2]

- r1 (no Cu) [3]: 2.2 mM⁻¹ s⁻¹
- r1 (1 equiv Cu) ([4]; 1 equiv Cu^+, 20 mM HEPES buffer): 3.8 mM^−1s^−1 and 3.8^b,c mM^−1s^−1
- τs0 (electronic relaxation time at zero field) ([5]; copper free): 61 ps
- r1p 20 MHz 25° C. ([5]; copper free, 0.5 mM, 20 mM HEPES pH 7): 2.2 mM⁻¹ s⁻¹
- a (distance of closest approach of outer-sphere water protons) ([5]; copper free, best-fit value): 4.2 ± 0.13 Å
- Δ^2 (average quadratic transient zero field splitting) ([5]; copper free, best-fit value): 8.4 ± 2.0 10^19 s^−2
- τv (electronic correlation time) ([5]; copper free, best-fit value): 16 ± 2.7 ps
- q ([5]; copper free, fixed in the fitting procedure): 0^c
- τR (rotational correlation time) ([5]; copper free, not experimentally determined, assumed equal to corresponding q ≠ 0 complex (CG5: average of the other complexes)): 80^d ps
- change in q ([5]; upon addition of Cu^2+, determined by NMRD): 1
- r1 (1 equiv Cu) ([6]; 1 equiv Cu^2+, 20 mM HEPES buffer): 3.8 mM^−1s^−1 and 3.8^b,c mM^−1s^−1
Compound: CCSCCN(CC(=O)[O-])Cc1cccc(CN2CCN(CC(=O)[O-])CCN(CC(=O)[O-])CCN(CC(=O)[O-])CC2)n1.[Gd+3] [CG6]
- redox specificity of relaxivity response (Cu^+ vs Cu^2+) [2]: responds to both Cu^+ and Cu^2+ with the same relaxivity turn-on
- % increase in r1 ([4]; 1 equiv Cu^+ vs no Cu, 20 mM HEPES): 73%
- % increase in r1 ([6]; 1 equiv Cu^2+ vs no Cu, 20 mM HEPES): 73%

- −Δ ppm/[Dy] (DIS slope) [1, 7]: 79 ppm/(mol/kg H2O)
- q (estimated number of inner-sphere water molecules) [1, 7]: 2.2
- −Δ ppm/[Dy] (DIS slope) ([1]; 20 mM HEPES, pH 7, no Cu^+): 11 ppm/(mol/kg H2O)
Compound: O=C([O-])CN1CCN(CC(=O)[O-])CCN(Cc2cccc(CN3CCSCCSCCSCC3)n2)CCN(CC(=O)[O-])CC1.[Dy+3] [DyCG3]

- −Δ ppm/[Dy] (DIS slope) [1, 8]: 41 ppm/(mol/kg H2O)
- q (estimated number of inner-sphere water molecules) [1, 8]: 1.0
- −Δ ppm/[Dy] (DIS slope) ([1]; 10% CH3CN in 20 mM HEPES pH 7, no Cu^+): 12 ppm/(mol/kg H2O)
Compound: CCSCCN(C)Cc1cccc(CN2CCN(CC(=O)[O-])CCN(CC(=O)[O-])CCN(CC(=O)[O-])CC2)n1.[Dy+3] [DyCG5]
